“Also recorded” adds a separate entry of the source.
How the values were obtained:
[1] = biological target: T1, C3aR on neutrophils (Homo sapiens, UniProt Q16581); test: Neutrophil- and NHS-mediated MSC damage assay with C3aR antagonist; format: cell-based; conditions: HL60-derived neutrophils plus 30% NHS; antagonist alone, 10 μM
T1 construct: endogenous in cells; host or cells: human neutrophils from donor blood or differentiated from HL-60 cells
T1 sequence (Q16581 1-482): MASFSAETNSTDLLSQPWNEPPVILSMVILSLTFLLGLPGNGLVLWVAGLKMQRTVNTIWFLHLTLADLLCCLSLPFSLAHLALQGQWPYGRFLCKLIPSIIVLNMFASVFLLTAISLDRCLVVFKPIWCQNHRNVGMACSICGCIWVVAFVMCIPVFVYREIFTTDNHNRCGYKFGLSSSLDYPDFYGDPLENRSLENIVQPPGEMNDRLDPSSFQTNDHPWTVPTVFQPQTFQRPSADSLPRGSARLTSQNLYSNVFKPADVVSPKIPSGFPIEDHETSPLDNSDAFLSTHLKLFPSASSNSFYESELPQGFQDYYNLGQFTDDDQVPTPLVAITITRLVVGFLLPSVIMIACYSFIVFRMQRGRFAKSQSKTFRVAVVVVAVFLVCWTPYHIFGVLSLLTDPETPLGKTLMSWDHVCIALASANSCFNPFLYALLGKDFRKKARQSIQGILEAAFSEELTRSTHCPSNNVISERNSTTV
Procedure: Neutrophil-mediated MSC damage assay. Human neutrophils, either purified from healthy donor peripheral blood mononuclear cells (PBMCs) by Ficoll centrifugation (provided by the Hematopoietic Stem Cells Core Facility at Case Western Reserve University) or differentiated from the neutrophil progenitor cell line HL-60 (ATCC), were used. Collins et al., Proc Natl Acad Sci USA. 1978; 75:2458-62. In some experiments, neutrophil-mediated MSC damage was assessed using a similar BCECF-based assay to that already described. In brief, 2×10^4 MSCs were labeled with BCECF-AM as described above, then, after washing, the labeled MSC were incubated for 30 min at 37° C. with different numbers of neutrophils in the presence or absence of 30% NHS in 100 μl of GVB++ buffer with various concentrations of the neutrophil function inhibitor wortmannin that inhibits oxidative burst (Sue-A-Quan et al., Journal of cellular physiology. 1997; 172:94-108) (Cayman Chemical, Ann Arbor, Mich.) and released BCECF in the supernatants was measured as described. The percentage BCECF release (cell injury) was calculated as above. […]

[2] = tested on: human IgGs and IgMs on MSCs; test: MSC serum immunoglobulin binding assay; format: cell-based; conditions: MSCs cultured with Neu5AC, then pooled normal human serum
Procedure: MSC serum immunoglobulin binding assay. MSCs (0.5×10^6) cultured in the presence or absence of 3 mM of Neu5AC for a week were incubated for 30 min on ice with 30% pooled normal human serum in PBS. After washing, the cells were stained for cell surface-bound human IgGs and IgMs with 2 μg/ml of anti-human IgG or anti-human IgM antibodies (Jackson ImmunoResearch Laboratories, West Grove, Pa.) and examined by flow cytometry.

[3] = tested on: Neu5GC on MSCs; test: Neu5GC detection on MSCs; format: cell-based, human; conditions: MSCs cultured 7 days with Neu5AC in complete medium vs without
Procedure: Neu5GC detection on MSCs. This was performed as described previously by Ghaderi et al. In brief, after blocking with a 0.5% solution of fish skin gelatin (Sigma-Aldrich, St. Louis, Mo.), MSCs were incubated for 30 min on ice with 5 μg/ml of chicken anti-Neu5GC IgY or control IgY, then were washed, stained with 5 μg/ml of fluorescein isothiocyanate (FITC)-labeled anti-IgY antibody (Jackson ImmunoResearch Laboratories, West Grove, Pa.), and analyzed on a flow cytometer (BD FACSCalibur, San Jose, Calif.).

[4] = tested on: MSCs; test: In vitro damage of MSCs (BCECF release) after contact with serum; format: cell-based; conditions: MSCs cultured with Neu5AC (lower Neu5GC levels) vs without; 20% or 30% normal human serum
Procedure: Measurement of in vitro damage of MSCs. An established fluorescence dye release assay was used to assess MSC injury after contact with serum. In brief, 2×10^5 heparin-painted or mock-painted MSCs were first loaded by incubation for 30 min at 37° C. with 5 μM 2′,7′-bis-(2-carboxyethyl)-5-(and-6)-carboxyfluorescein acetoxymethyl ester (BCECF-AM) (Thermo Fisher Scientific™, Grand Island, N.Y.). After 3 washes, the BCECF-loaded MSCs were incubated for 30 min at 37° C. with 20 or 30% normal human serum in 100 μL of GVB++, then the cells were removed by centrifugation and released BCECF in the supernatant measured on a SpectraMax Gemini XS (Molecular Devices, Sunnyvale, Calif.) with excitation and emission wavelengths, respectively, of 485 nm and 538 nm. The MSC damage (percentage of BCECF release) was calculated as ([A−B]/[C−B])×100%, where A represents the mean experimental BCECF release, B the mean spontaneous BCECF release, and C the mean maximum BCECF release induced by incubating the cells with 0.1% Triton-X100.

[5] = tested on: complement alternative pathway; test: Complement alternative pathway activation ex vivo assay (zymosan C3b deposition); format: in vivo; conditions: plasma of WT C57BL/6 mice 30 min after s.c. heparin 20 U/mouse vs saline
Procedure: (§1) Complement alternative pathway and classical pathway activation ex vivo assays. Mice were injected subcutaneously (s.c.) with 20 U of heparin (MP Biomedicals, Solon, Ohio) in saline or saline alone, then blood samples were collected 30 min later and immediately centrifuged for 5 min at 4° C. to collect the plasma. The activity of the complement alternative pathway was assessed using a zymosan C3b deposition assay and complement classical pathway activity was measured using an antibody-sensitized sheep erythrocytes (EshA) C3b deposition assay.

[6] = tested on: complement classical pathway; test: Complement classical pathway activation ex vivo assay (EshA C3b deposition); format: in vivo; conditions: plasma of WT C57BL/6 mice 30 min after s.c. heparin 20 U/mouse vs saline
Procedure: as §1

[7] = tested on: MSCs; test: In vivo damage of MSCs (BCECF release in plasma); set-up: species or system mice; conditions: BCECF-labeled MSCs infused via tail vein 10 min after s.c. heparin vs saline
Procedure: Measurement of in vivo damage of MSCs. In vivo MSC damage after infusion was also examined using a BCECF release assay. In brief, each mouse was injected subcutaneously with 500 U of heparin in saline or saline alone, then 1×10^6 MSCs labeled with BCECF were injected by the tail vein, then blood samples were collected after 0, 20, 40, and 60 min and released BCECF in the plasma measured on a SpectraMax Gemini XS (Molecular Devices, Sunnyvale, Calif.) as above.
To evaluate in vivo damage to MSCs with or without heparin painting, 0.5×10^6 heparin-painted or mock-painted MSCs were labeled with BCECF, then injected into the tail vein and blood sample collected and the plasma assayed for levels of released BCECF as above.

[8] = tested on: neutrophils; conditions: Ehrengruber et al. 1994; cited from earlier work
[9] = tested on: primary neutrophils; test: Primary neutrophil-mediated MSC damage with purified C5a; format: cell-based; conditions: purified human C5a 50 ng/ml, no NHS, 4 h
Procedure: Neutrophil-mediated MSC damage assay. Human neutrophils, either purified from healthy donor peripheral blood mononuclear cells (PBMCs) by Ficoll centrifugation (provided by the Hematopoietic Stem Cells Core Facility at Case Western Reserve University) or differentiated from the neutrophil progenitor cell line HL-60 (ATCC), were used. Collins et al., Proc Natl Acad Sci USA. 1978; 75:2458-62. In some experiments, neutrophil-mediated MSC damage was assessed using a similar BCECF-based assay to that already described. In brief, 2×10^4 MSCs were labeled with BCECF-AM as described above, then, after washing, […] neutrophils in the presence or absence of 30% NHS in 100 μl of GVB++ buffer with various concentrations of the neutrophil function inhibitor wortmannin that inhibits oxidative burst (Sue-A-Quan et al., Journal of cellular physiology. 1997; 172:94-108) (Cayman Chemical, Ann Arbor, Mich.) and released BCECF in the supernatants was measured as described. The percentage BCECF release (cell injury) was calculated as above. In some experiments, a C5aR antagonist (JPE1375, Calbiochem, Billerica, Mass.)[27] or a C3aR antagonist (SB 290157, Calbiochem, Billerica, Mass.)[28] were added, both at […], to assess the role of C3aR and C5aR on neutrophils, while, in other experiments, NHS was omitted and 50 ng/ml of purified C5a (Complement technology Inc, Tyler, Tex.) added instead.

In the case of `NC(N)=NCCC[C@H](NC(=O)COCC(c1ccccc1)c1ccccc1)C(=O)O` [C3aR antagonist], the “neutrophil-mediated MSC damage (BCECF release)” value [1] is reported as “no appreciable effect”.

For `CC(=O)N[C@H]1[C@H]([C@H](O)[C@H](O)CO)OC(O)(C(=O)O)C[C@@H]1O` (stereo partly drawn) [Neu5AC, N-acetylneuraminic acid], the “amount of bound IgM and IgG on MSCs” value [2] was “decrease”, the “Neu5GC levels on the MSC surface” value [3] was “significantly reduced” and the “complement-mediated MSC injury” value [4] was “less complement-mediated injury; also recorded: moderate reduction”.

For heparin, the “C3 deposition on the surface of zymosan (alternative pathway)” value [5] was “markedly reduced”, the “C3 deposition on the surface of EshA (classical pathway)” value [6] was “markedly reduced” and the “in vivo MSC cell damage (released BCECF in the plasma)” value [7] was “protected”.

B1: C5a: purified human C5a, anaphylatoxin (Complement technology Inc) (protein, UniProt P01031 678-751, looked up)
C5a anaphylatoxin: TLQKKIEEIAAKYKHSVVKKCCYDGACVNNDETCEQRAARISLGPRCIKAFTECCVVASQLRANISHKDMQLGR
modifications: C5a anaphylatoxin
In the case of B1, the “potency in activating neutrophils relative to C3a” value [8] is given as 50-100 times and the “MSC damage by primary neutrophils” value [9] is given as “significant MSC damage”.
